Data from ChEMBL document CHEMBL1201862, “PubChem BioAssay data set” (2004).
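In this assay, cells in 96-well plates receive the compound at five concentrations for 48 hours. Endpoints are linearly interpolated between the surrounding concentrations. Here, GI50 denotes the concentration required for 50% inhibition of growth.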 Calls of active or inactive are those of the source. No stated cut-off is given here; in the data, active = GI50 up to about 1.1 µM and inactive = higher.

Legend:
Experiment in all cases: growth of human tumour cells (NCI), 48 h
U-251 = system: U-251
DU-145 = system: DU-145
SN12C = system: SN12C
MDA-MB-435 = system: MDA-MB-435
SK-MEL-28 = system: SK-MEL-28
SW-620 = system: SW-620
Malme-3M = system: Malme-3M
SK-OV-3 = system: SK-OV-3
SF-295 = system: SF-295
UACC-62 = system: UACC-62
T47D = system: T47D
COLO 205 = system: COLO 205
MCF7 = system: MCF7
HOP-92 = system: HOP-92
A549 = system: A549
MDA-MB-231 = system: MDA-MB-231
MOLT-4 = system: MOLT-4
UO-31 = system: UO-31
TK-10 = system: TK-10
A498 = system: A498

Measured: GI50

Cc1n[nH]c(=O)n1C1CC1
inactive: U-251 > 100 µM | DU-145 > 100 µM | SN12C > 100 µM | MDA-MB-435 > 100 µM | SK-MEL-28 > 100 µM | SW-620 > 100 µM | Malme-3M 64.1 µM | SK-OV-3 > 100 µM | SF-295 > 100 µM | UACC-62 > 100 µM | T47D > 100 µM | COLO 205 > 100 µM | MCF7 > 100 µM | HOP-92 > 100 µM | A549 > 100 µM | MDA-MB-231 > 100 µM | MOLT-4 > 100 µM | UO-31 > 100 µM

COc1cc([C@@H]2c3cc4c(cc3[C@@H](OC3OC5COC(C)OC5C(OC(=O)CN5CCN(C)CC5)C3OC(=O)CN3CCN(C)CC3)C3COC(=O)[C@@H]32)OCO4)cc(OC)c1OC(=O)CN1CCN(C)CC1 (stereo partly drawn)
inactive: U-251 26.9 µM | DU-145 44.7 µM | SN12C 44.1 µM | MDA-MB-435 > 100 µM | TK-10 > 100 µM | SW-620 41.8 µM | Malme-3M 61.7 µM | SK-OV-3 > 100 µM | SF-295 38.1 µM | UACC-62 > 100 µM | T47D 71.1 µM | COLO 205 > 100 µM | MCF7 10.8 µM | HOP-92 > 100 µM | MDA-MB-231 54.3 µM | MOLT-4 2.49 µM | UO-31 68.9 µM

CCCCOC(=O)c1cc(C(=CCC[C@H]2CC[C@@]3(C)[C@@H](CC[C@@H]4[C@@H]3CC[C@]3(C)[C@@H](C(C)CCCC(C)C)CC[C@@H]43)C2)c2cc(Cl)c(O)c(C(=O)OCCCC)c2)cc(Cl)c1O (stereo partly drawn)
inactive: U-251 > 50 µM | DU-145 > 50 µM | SN12C > 50 µM | MDA-MB-435 > 50 µM | A498 > 50 µM | SW-620 > 50 µM | UACC-62 > 50 µM | T47D > 50 µM | COLO 205 > 50 µM | HOP-92 > 50 µM | MDA-MB-231 > 50 µM | MOLT-4 > 5 µM

O=C(O)C1C2CCC(O2)C1C(=O)NCc1cccnc1 (stereo not drawn)
inactive: U-251 > 100 µM | DU-145 > 100 µM | SN12C > 100 µM | MDA-MB-435 > 100 µM | A498 > 100 µM | TK-10 > 100 µM | SK-MEL-28 > 100 µM | SW-620 > 100 µM | Malme-3M > 100 µM | SK-OV-3 > 100 µM | SF-295 > 100 µM | UACC-62 > 100 µM | T47D > 100 µM | COLO 205 > 100 µM | MCF7 > 100 µM | A549 > 100 µM | MDA-MB-231 > 100 µM | UO-31 > 100 µM

CCOC(=O)c1c(NS(=O)(=O)c2ccccc2)sc2c1CCCC2
inactive: DU-145 89.5 µM | SN12C 66.7 µM | A498 98.2 µM | TK-10 62.8 µM | SF-295 43.6 µM | UACC-62 76 µM | T47D 47.8 µM | COLO 205 44.4 µM | MCF7 46.7 µM | A549 47.9 µM | MDA-MB-231 > 100 µM | MOLT-4 40.6 µM | UO-31 70.5 µM
